The values that follow come from ChEMBL document CHEMBL1128435, “Synthesis of carbon-11-, fluorine-18-, and iodine-125-labeled GABAA-gated chloride ion channel blockers: substituted 5-tert-butyl-2-phenyl-1,3-dithianes and -dithiane oxides” (J Med Chem, 1995).

In series [1] the target is GABA-A receptor; anion channel. Nature of the series: In vitro displacement of [3H]TBOB from Gamma-aminobutyric acid A (GABA-A) receptor of rat brain. For orientation: Displacement assays read how much labelled ligand stays bound in the presence of the test substance.
Series [2] can be described thus: Partition coefficient (logP). As to conditions: octanol/water. It counts as physicochemical.

A word on the Ki: it is a measure of affinity in units of concentration, obtained from inhibition or displacement. The logP is a log measure of how a compound divides between an organic and an aqueous phase.

On to `CC(C)(C)[C@H]1CS(=O)(=O)[C@@](C)(c2ccc(C#N)cc2)S(=O)(=O)C1` (stereo in doubt; 9b), for which the Ki in series [1] came out at 41 nM. `CC(C)(C)C1CSC(c2ccc(F)cc2)SC1` (stereo unspecified) displayed a logP in series [2] of 4.97. For the compound `CC(C)(C)C1CS(=O)(=O)C(c2ccc(F)cc2)S(=O)(=O)C1` (stereo unspecified), the logP in series [2] was determined as 0.43. Also, the Ki in series [1] was 180 nM. In turn, `CC(C)(C)[C@H]1CS(=O)(=O)[C@@](C)(c2ccc(C#N)cc2)S(=O)(=O)C1` (stereo in doubt; 9a) had a Ki in series [1] of 200 nM. In series [2], `CC(C)(C)C1CS(=O)(=O)C(C)(c2ccc(C#N)cc2)S(=O)(=O)C1` (stereo unspecified) showed a logP of 0.351. Also, affinity in series [1] was put at a Ki of 87 nM.

On to `CC(C)(C)C1CSC(c2ccc(C#N)cc2)SC1` (stereo unspecified), for which the logP in series [2] was found to be 4.38. This compound also yielded an inhibitory constant (Ki) in series [1] of 240 nM.

The compound `CC(C)(C)C1CS(=O)(=O)C(C)(c2ccc(I)cc2)S(=O)(=O)C1` (stereo unspecified) returned a logP in series [2] of 1.95. The same compound gave a Ki in series [1] of 105 nM.

In turn, `CC1(c2ccc(I)cc2)SCC(C(C)(C)C)CS1` (stereo unspecified) came in with a log partition coefficient (logP) in series [2] of 6.5. Moreover, the Ki in series [1] was 1900 nM.

`C#Cc1ccc(C2SCC(C(C)(C)C)CS2)cc1` (stereo unspecified): the lipophilicity (logP) in series [2] came to 4.96. In addition, the Ki in series [1] stood at 85 nM. As for `CC1(c2ccc(C#N)cc2)SCC(C(C)(C)C)CS1` (stereo unspecified), the logP in series [2] worked out at 4.89.
